We go through 21 compounds from US20240336642A1 (The General Hospital Corporation, priority 2021, published 2024).

One series has as its target h12/15-LOX (Homo sapiens (Human), UniProt P16050). Briefly: 12/15-LOX enzyme inhibition IC50 assay (Examples 1 and 2). Type of series: biochemical. As to conditions: for Emax: read-out: Max % inhibition. As to the method:
Enzyme was then added to the cuvettes. […] The % inhibition for each test compound concentration were calculated as follows: […]

A short description of series [1]: Aqueous solubility of exemplified compounds (Example 3). Type of series: physicochemical. As to conditions: aqueous solubility.
Series [2] can be described thus: Metabolic stability of exemplified compounds (Example 4). Type of series: in vitro ADME.

Counter-ions that a name gives are not always drawn.

h12/15-LOX, sequence (P16050 whole entry): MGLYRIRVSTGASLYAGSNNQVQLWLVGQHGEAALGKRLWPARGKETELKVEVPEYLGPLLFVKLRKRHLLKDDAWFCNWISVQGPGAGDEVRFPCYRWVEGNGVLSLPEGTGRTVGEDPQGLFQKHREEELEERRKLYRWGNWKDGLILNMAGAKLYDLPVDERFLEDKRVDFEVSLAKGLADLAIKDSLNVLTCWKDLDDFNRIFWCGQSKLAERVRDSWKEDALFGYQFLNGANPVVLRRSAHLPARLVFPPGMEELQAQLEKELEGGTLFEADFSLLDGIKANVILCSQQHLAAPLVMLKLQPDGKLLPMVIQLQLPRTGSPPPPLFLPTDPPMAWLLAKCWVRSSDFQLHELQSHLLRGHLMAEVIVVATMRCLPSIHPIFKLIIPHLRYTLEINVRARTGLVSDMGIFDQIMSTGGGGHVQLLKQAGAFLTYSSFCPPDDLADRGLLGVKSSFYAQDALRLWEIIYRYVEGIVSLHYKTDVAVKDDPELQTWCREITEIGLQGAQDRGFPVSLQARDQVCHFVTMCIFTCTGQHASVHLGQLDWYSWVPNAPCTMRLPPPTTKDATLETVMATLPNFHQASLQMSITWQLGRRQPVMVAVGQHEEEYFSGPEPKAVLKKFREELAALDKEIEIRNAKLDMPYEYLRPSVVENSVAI

For `N#Cc1nc(-c2cc(Cl)cc(Cl)c2Cl)oc1NCCOCCO` [Compound 28, 5-((2-(2-Hydroxyethoxy)ethyl)amino)-2-(2,3,5-trichlorophenyl)oxazole-4-carbonitrile], 1500 nM corresponded to half-maximal inhibition against h12/15-LOX (IC50). In addition, on h12/15-LOX (h12/15-LOX), the Emax was 87%. Moreover, the Sol entry in series [1] is given as “+++ (“+++” 20-50 μM)”. Also, the “Extr (EH)” value was “** (“**” 50-100%)” in series [2] (Human liver microsomes), “* (“*” <50%)” in series [2] (Mouse liver microsomes) and “* (“*” <50%)” in series [2] (Rat liver microsomes). Further, the values for the microsomal CLint in series [2] (Human liver microsomes), in series [2] (Mouse liver microsomes) and in series [2] (Rat liver microsomes) were 20 to 100 µL/min/mg, 20 to 100 µL/min/mg and under 20 µL/min/mg, respectively.
Turning to `COCCNc1oc(-c2cc(Cl)cc(Cl)c2Cl)nc1C#N` [Compound 39, 5-((2-Methoxyethyl)amino)-2-(2,3,5-trichlorophenyl)oxazole-4-carbonitrile], the IC50 against h12/15-LOX was found to be 370 nM. Besides, the Emax on h12/15-LOX (h12/15-LOX) stood at 100%. The Sol result in series [1] is listed as “+ (“+” < 10 μM)”. Moreover, the “Extr (EH)” value in series [2] (Human liver microsomes), in series [2] (Mouse liver microsomes) and in series [2] (Rat liver microsomes) was “** (“**” 50-100%)” in each case. The figures for the microsomal CLint in series [2] (Human liver microsomes), in series [2] (Mouse liver microsomes) and in series [2] (Rat liver microsomes) were 20 to 100 µL/min/mg, 100 to 200 µL/min/mg and 20 to 100 µL/min/mg, respectively.
In the case of `COCC/C=C/CNc1oc(-c2cc(Cl)cc(Cl)c2Cl)nc1C#N` [Compound 46, (E)-5-((5-Methoxypent-2-en-1-yl)amino)-2-(2,3,5-trichlorophenyl)oxazole-4-carbonitrile], the IC50 at h12/15-LOX stood at 210 nM. In addition, the Emax at h12/15-LOX (h12/15-LOX) stood at 95%. For the same compound, the Sol result in series [1] is “+ (“+” < 10 μM)”. Moreover, the “Extr (EH)” value in series [2] (Human liver microsomes), in series [2] (Mouse liver microsomes) and in series [2] (Rat liver microsomes) was “** (“**” 50-100%)” each time. For the same compound, the microsomal CLint in series [2] (Human liver microsomes) was 20 to 100 µL/min/mg; in series [2] (Mouse liver microsomes), 100 to 200 µL/min/mg; in series [2] (Rat liver microsomes) it was 20 to 100 µL/min/mg.
`N#Cc1nc(-c2cc(Cl)cc(Cl)c2Cl)oc1NC/C=C/COCc1ccccc1` [Compound 47, (E)-5-((4-(Benzyloxy)but-2-en-1-yl)amino)-2-(2,3,5-trichlorophenyl)oxazole-4-carbonitrile] returned an IC50 on h12/15-LOX of 230 nM. In addition, the Emax on h12/15-LOX (h12/15-LOX) amounted to 98%. The Sol result in series [1] is recorded as “+ (“+” < 10 μM)”. In addition, the “Extr (EH)” value in series [2] (Human liver microsomes), in series [2] (Mouse liver microsomes) and in series [2] (Rat liver microsomes) was “** (“**” 50-100%)” in each case. Moreover, the microsomal CLint in series [2] (Human liver microsomes), in series [2] (Mouse liver microsomes) and in series [2] (Rat liver microsomes) was 100 to 200 µL/min/mg in each case.
`N#Cc1nc(-c2cc(Cl)cc(Cl)c2Cl)oc1NCCCO` [Compound 16, 5-((3-Hydroxypropyl)amino)-2-(2,3,5-trichlorophenyl)oxazole-4-carbonitrile] had an IC50 against h12/15-LOX of 4300 nM. Also, at h12/15-LOX (h12/15-LOX), the Emax came to 100%. Also, in series [1], the Sol entry is on record as “+++ (“+++” 20-50 μM)”. Also, the “Extr (EH)” value in series [2] (Human liver microsomes) was “* (“*” <50%)”; in series [2] (Mouse liver microsomes) it was “** (“**” 50-100%)”; in series [2] (Rat liver microsomes), “* (“*” <50%)”. Also, the microsomal CLint in series [2] (Human liver microsomes) was under 20 µL/min/mg; in series [2] (Mouse liver microsomes), 100 to 200 µL/min/mg; in series [2] (Rat liver microsomes), 20 to 100 µL/min/mg.
In turn, `CC(C)OCCOCCNc1oc(-c2cc(Cl)cc(Cl)c2Cl)nc1C#N` [Compound 49, 5-((2-(2-Isopropoxyethoxy)ethyl)amino)-2-(2,3,5-trichlorophenyl)oxazole-4-carbonitrile] came in with an IC50 against h12/15-LOX of 660 nM. The Emax at h12/15-LOX (h12/15-LOX) worked out at 95%. The Sol entry in series [1] is recorded as “+ (“+” < 10 μM)”. Besides, the “Extr (EH)” value in series [2] (Human liver microsomes) was “* (“*” <50%)”; in series [2] (Mouse liver microsomes), “** (“**” 50-100%)”; in series [2] (Rat liver microsomes), “** (“**” 50-100%)”. Besides, the microsomal CLint is under 20 µL/min/mg in series [2] (Human liver microsomes), 20 to 100 µL/min/mg in series [2] (Mouse liver microsomes) and 20 to 100 µL/min/mg in series [2] (Rat liver microsomes).
For the compound `N#Cc1nc(-c2cc(Cl)cc(Cl)c2Cl)oc1NCC#CCOCc1ccccc1` [Compound 43, 5-((4-(Benzyloxy)but-2-yn-1-yl)amino)-2-(2,3,5-trichlorophenyl)oxazole-4-carbonitrile], the midpoint of inhibition at h12/15-LOX, the IC50, lay at 230 nM. Moreover, the Emax on h12/15-LOX (h12/15-LOX) was 93%. For the same compound, in series [1], the Sol entry was “+ (“+” < 10 μM)”. Besides, the “Extr (EH)” value in series [2] (Human liver microsomes), in series [2] (Mouse liver microsomes) and in series [2] (Rat liver microsomes) was “** (“**” 50-100%)” each time. The microsomal CLint lay in the range of 100 to 200 µL/min/mg in series [2] (Human liver microsomes), 20 to 100 µL/min/mg in series [2] (Mouse liver microsomes) and 20 to 100 µL/min/mg in series [2] (Rat liver microsomes).
`N#Cc1nc(-c2cc(Cl)cc(Cl)c2Cl)oc1NCCCCCO` [Compound 22, 5-((5-Hydroxypentyl)amino)-2-(2,3,5-trichlorophenyl)oxazole-4-carbonitrile] gave an IC50 against h12/15-LOX of 510 nM. In addition, at h12/15-LOX (h12/15-LOX), the Emax was 82%. The Sol result in series [1] was “+ (“+” < 10 μM)”. For the same compound, the results for the “Extr (EH)” value in series [2] (Human liver microsomes), in series [2] (Mouse liver microsomes) and in series [2] (Rat liver microsomes) were “** (“**” 50-100%)”, “* (“*” <50%)” and “* (“*” <50%)”, respectively. The microsomal CLint is 20 to 100 µL/min/mg in series [2] (Human liver microsomes), under 20 µL/min/mg in series [2] (Mouse liver microsomes) and 20 to 100 µL/min/mg in series [2] (Rat liver microsomes).
On to `COC/C=C/CNc1oc(-c2cc(Cl)cc(Cl)c2Cl)nc1C#N` [Compound 45, (E)-5-((4-Methoxybut-2-en-1-yl)amino)-2-(2,3,5-trichlorophenyl)oxazole-4-carbonitrile], for which the IC50 against h12/15-LOX is 190 nM. Further, on h12/15-LOX (h12/15-LOX), the Emax worked out at 98%. For the same compound, the Sol entry in series [1] is “+ (“+” < 10 μM)”. For the same compound, the “Extr (EH)” value in series [2] (Human liver microsomes), in series [2] (Mouse liver microsomes) and in series [2] (Rat liver microsomes) was “** (“**” 50-100%)” in each case. For the same compound, the values for the microsomal CLint in series [2] (Human liver microsomes), in series [2] (Mouse liver microsomes) and in series [2] (Rat liver microsomes) were 20 to 100 µL/min/mg, 100 to 200 µL/min/mg and 20 to 100 µL/min/mg, respectively.
Compound `COCCOCCOCCNc1oc(-c2cc(Cl)cc(Cl)c2Cl)nc1C#N` [Compound 50, 5-((2-(2-(2-Methoxyethoxy)ethoxy)ethyl)amino)-2-(2,3,5-trichlorophenyl)oxazole-4-carbonitrile] returned an IC50 against h12/15-LOX of 890 nM. The same compound displayed a Max % inhibition on h12/15-LOX (h12/15-LOX) of 99%. Moreover, in series [1], the Sol result is “+++ (“+++” 20-50 μM)”. Moreover, the CLint result in series [2] (Human liver microsomes), in series [2] (Mouse liver microsomes) and in series [2] (Rat liver microsomes) was “++ (“++” 20-100 μL/min/mg)” throughout. Also, the “Extr (EH)” value in series [2] (Human liver microsomes), in series [2] (Mouse liver microsomes) and in series [2] (Rat liver microsomes) was “** (“**” 50-100%)” in each case.
Regarding `COCCOCCNc1oc(-c2cc(Cl)cc(Cl)c2OC(F)F)nc1C#N` [Compound 33, 2-(3,5-Dichloro-2-(difluoromethoxy)phenyl)-5-((2-(2-methoxyethoxy)ethyl)amino)oxazole-4-carbonitrile], at h12/15-LOX, the IC50 is 650 nM. Also, the Emax at h12/15-LOX (h12/15-LOX) is 100%.
`COCCOCCOC(=O)Nc1oc(-c2cc(Cl)cc(Cl)c2Cl)nc1C#N` [Compound 60, 2-(2-Methoxyethoxy)ethyl (4-cyano-2-(2,3,5-trichlorophenyl)oxazol-5-yl)carbamate]: the half-maximal inhibitory concentration (IC50) against h12/15-LOX was over 20000 nM.
In turn, `N#Cc1nc(-c2cc(Cl)cc(Cl)c2Cl)oc1NCCOCCN1CCC(F)C1` (centres unmarked) [Compound 78, 5-((2-(2-(3-Fluoropyrrolidin-1-yl)ethoxy)ethyl)amino)-2-(2,3,5-trichlorophenyl)oxazole-4-carbonitrile] displayed an IC50 at h12/15-LOX of over 20000 nM. Moreover, the Emax on h12/15-LOX (h12/15-LOX) came out at 49%.
Turning to `CN(C)CCCCC(=O)N(C)c1oc(-c2cc(Cl)cc(Cl)c2Cl)nc1C#N` [Compound 62, N-(4-Cyano-2-(2,3,5-trichlorophenyl)oxazol-5-yl)-5-(dimethylamino)-N-methylpentanamide hydrochloride], the IC50 against h12/15-LOX was determined as 8300 nM. The Emax on h12/15-LOX (h12/15-LOX) is 100%.
At h12/15-LOX, `N#Cc1nc(-c2cc(Cl)cc(Cl)c2Cl)oc1NCCOCCNCC(F)(F)F` [Compound 94, 2-(2,3,5-Trichlorophenyl)-5-((2-(2-((2,2,2-trifluoroethyl)amino)ethoxy)ethyl)amino)oxazole-4-carbonitrile] returned an IC50 of 300 nM. Also, on h12/15-LOX (h12/15-LOX), the Emax stood at 77%.
`COc1cc(OCCOCCNc2oc(-c3cc(Cl)cc(Cl)c3Cl)nc2C#N)ccn1` [Compound 101, 5-((2-(2-((2-Methoxypyridin-4-yl)oxy)ethoxy)ethyl)amino)-2-(2,3,5-trichlorophenyl)oxazole-4-carbonitrile] returned an IC50 on h12/15-LOX of 72 nM. Moreover, the Emax on h12/15-LOX (h12/15-LOX) was 62%.
`COCCOCCNc1oc(-c2cc(Cl)cc(C(F)(F)F)c2Cl)nc1C#N` [Compound 37, 2-(2,5-Dichloro-3-(trifluoromethyl)phenyl)-5-((2-(2-methoxyethoxy)ethyl)amino)oxazole-4-carbonitrile] showed an IC50 on h12/15-LOX of 1800 nM. Moreover, the Emax at h12/15-LOX (h12/15-LOX) is 96%.
For `CNc1oc(-c2cc(C)cc(Cl)c2Cl)nc1C#N` [Compound 10, 2-(2,3-Dichloro-5-methylphenyl)-5-(methylamino)oxazole-4-carbonitrile], in that order: 380 nM and 80%.
For `C=CCNc1oc(-c2cc(Cl)cc(Cl)c2Cl)nc1C#N` [Compound 14, 5-(allylamino)-2-(2,3,5-trichlorophenyl)oxazole-4-carbonitrile], in that order: 110 nM and 88%.
Consider `N#Cc1nc(-c2cc(Cl)cc(Cl)c2Cl)oc1NCCOCCN1CC(F)C1` [Compound 77, 5-((2-(2-(3-Fluoroazetidin-1-yl)ethoxy)ethyl)amino)-2-(2,3,5-trichlorophenyl)oxazole-4-carbonitrile], for which the IC50 against h12/15-LOX is over 20000 nM.
On h12/15-LOX, `N#Cc1nc(-c2cc(Cl)cc(C(F)(F)F)c2Cl)oc1NCCCCO` [Compound 20, 2-(2,5-Dichloro-3-(trifluoromethyl)phenyl)-5-((4-hydroxybutyl)amino)oxazole-4-carbonitrile] registered an IC50 of 1500 nM. Moreover, the Emax on h12/15-LOX (h12/15-LOX) is 97%.
